Data published in ChEMBL document CHEMBL1201862, “PubChem BioAssay data set” (2004).
Active and inactive are the calls of the source.

Experiments:
[1] = biological target: UDP-galactopyranose mutase (Mycobacterium tuberculosis, UniProt P9WIQ1); assay: Inhibitors of Mycobacterium tuberculosis UDP-galactopyranose mutase (UGM) enzyme Measured in Biochemical System Using Plate Reader - 2105-02_Inhibitor_Dose_CherryPick_Activity. [Related pubchem assays (depositor defined):AID504439]
Keap1/Nrf2 = Keap1/Nrf2 (Homo sapiens, UniProt Q14145); assay: disruptors of Keap1 binding to Nrf2 peptide – biochemical, fluorescence polarization, cherry-picked samples, dose response (AID 588683)
HeLa = assay: ATP-based viability loss in HeLa cells – cell-based, CellTiter-Glo luminescence, cherry-pick samples, cytotoxicity control for MITF activator project, dose response (AID 540259); format: functional; conditions: Homo sapiens
Vero [2] = assay: cells; format: functional; conditions: Chlorocebus sabaeus
Vero [3] = assay: cells; format: functional, cell-based; conditions: Chlorocebus sabaeus
cells = conditions: HEK293
ORF 73 = ORF 73 (Human herpesvirus 8, UniProt O40947); assay: KSHV LANA DNA-binding disruption – biochemical, fluorescence polarization, cherry-picked samples, dose response (AID 504725); design: species or system Human gammaherpesvirus 8;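 note: fluorescence polarization of a labeled DNA duplex reporting LANA DNA binding; potency is for inhibitors that block LANA binding to the DNA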
[4] = Luminescence Cell-Based Dose Retest to Confirm Inhibitors of Cancer Stem Cells. [Related pubchem assays (depositor defined):AID2717, AID2721]; format: functional; conditions: Homo sapiens
INS1 = assay: INS-1E survival protection against cytokine death – cell-based, luminescence, retest, dose response (AID 449756); format: functional; conditions: Rattus norvegicus;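 note: cell death triggered by IL-1 beta plus TNF-alpha plus IFN-gamma mixture; protective hits raise ATP signal compared with cytokine alone wells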
Protein RecA = biological target: T1, Protein RecA (Mycobacterium tuberculosis, UniProt P9WHJ3); assay: Fluorescence Cell-Free Homogeneous Dose Retest to Identify Inhibitors of RecA-Intein Splicing Activity. [Related pubchem assays (depositor defined):AID2097, AID2223, AID489010, AID492950]; format: functional
T1 sequence (P9WHJ3 whole entry): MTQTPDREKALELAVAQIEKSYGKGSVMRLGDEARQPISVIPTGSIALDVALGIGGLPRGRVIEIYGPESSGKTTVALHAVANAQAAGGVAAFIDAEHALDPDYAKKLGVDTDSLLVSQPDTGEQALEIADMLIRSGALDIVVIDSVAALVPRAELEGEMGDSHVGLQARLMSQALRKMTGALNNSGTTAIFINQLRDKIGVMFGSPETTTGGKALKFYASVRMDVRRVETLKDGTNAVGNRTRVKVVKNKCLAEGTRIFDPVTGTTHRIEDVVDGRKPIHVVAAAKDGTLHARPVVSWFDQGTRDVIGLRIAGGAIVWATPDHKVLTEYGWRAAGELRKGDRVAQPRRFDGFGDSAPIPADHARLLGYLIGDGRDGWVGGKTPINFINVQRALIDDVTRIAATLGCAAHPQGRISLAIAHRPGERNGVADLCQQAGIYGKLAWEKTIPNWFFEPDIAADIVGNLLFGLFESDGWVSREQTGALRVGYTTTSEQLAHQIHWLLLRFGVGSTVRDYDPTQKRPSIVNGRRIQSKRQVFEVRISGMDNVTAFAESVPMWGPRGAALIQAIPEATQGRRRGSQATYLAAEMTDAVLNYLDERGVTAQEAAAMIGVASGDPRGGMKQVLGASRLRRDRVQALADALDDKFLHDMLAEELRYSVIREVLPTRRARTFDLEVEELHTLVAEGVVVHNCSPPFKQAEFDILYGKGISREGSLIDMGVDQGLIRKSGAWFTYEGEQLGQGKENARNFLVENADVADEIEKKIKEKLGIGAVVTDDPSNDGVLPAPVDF

Beta Lactamase = Beta Lactamase (Pseudomonas aeruginosa, UniProt Q932Y6); assay: BLA reporter interference, concentration series – BLA reporter cells, FRET fluorescence, artefact control for TLR9-MyD88 binding inhibitor project, dose response (AID 588341); format: cell-based;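 note: cell based assay in CHO-K1 cells stably expressing beta-lactamase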
[5] = reduction of Shn3 3'UTR-driven luciferase in osteoblasts – cell-based, Clone20 osteoblasts, firefly luciferase, cherry-picked, dose response (AID 624132); format: functional;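 note: firefly luciferase luminescence from reporter carrying the Shn3 3'UTR in osteoblasts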
CHO = CHO cell viability loss, potency – luminescence, cytotoxicity control for TLR9-MyD88 binding inhibitor project, dose response (AID 588339); format: functional, cell-based, hamster; conditions: Cricetulus griseus;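 note: CHO cells stably coexpressing TLR9 and MyD88 fusions from primary screen; compound exposure lasted 48 hours before viability readout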
[6] = biological target: T2, Type-1 angiotensin II receptor (Homo sapiens, UniProt P30556); assay: antagonism of angiotensin II type 1 receptor – cell-based, uHTS hits, selectivity assay for APJ receptor antagonist project, dose response (AID 463214); format: functional;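 note: antagonist potency against angiotensin II stimulated AT1 response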
T2 sequence (P30556 whole entry): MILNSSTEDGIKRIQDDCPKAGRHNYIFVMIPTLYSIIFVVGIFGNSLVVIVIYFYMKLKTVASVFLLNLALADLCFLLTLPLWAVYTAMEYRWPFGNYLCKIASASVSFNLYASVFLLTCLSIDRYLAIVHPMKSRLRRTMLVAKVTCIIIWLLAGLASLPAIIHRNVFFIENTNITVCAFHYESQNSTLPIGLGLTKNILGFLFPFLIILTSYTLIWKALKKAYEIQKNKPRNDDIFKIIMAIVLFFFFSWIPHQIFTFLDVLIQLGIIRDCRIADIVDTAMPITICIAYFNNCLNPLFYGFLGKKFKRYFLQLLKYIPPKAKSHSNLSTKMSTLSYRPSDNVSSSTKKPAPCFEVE

[7] = NIH3T3 cell viability loss – ATP luminescence, mouse fibroblasts, counter-screen, dose response (AID 2010); format: functional, cell-based;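 note: cells exposed to compound for about 90 hours before reading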
Beta-galactosidase = Beta-galactosidase (Escherichia coli, UniProt Q8VNN2); assay: PubChem AID 485352; format: functional
[8] = non-specific 3'UTR reporter inhibition in Clone20-Shn3RL – cell-based, Renilla luciferase, cherry-picked, counter-screen for Shn3 inhibitor project, dose response (AID 624133); format: functional
HEK293 = assay: EBV LMP1 TES2 canonical NF-kB signalling blockers – cell-based, HEK293, luciferase, cherry-pick, dose response (AID 588343); format: functional; conditions: Homo sapiens
[9] = Trypanosoma cruzi growth suppression in host cells – NIH3T3 host cells, beta-gal luminescence, confirmation (AID 2044); format: functional, cell-based;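 note: intracellular parasites grown in NIH/3T3 mouse fibroblasts as host cells; luminescent beta-galactosidase reporter signal from transgenic T. cruzi replicating inside host cells; inhibitors lower the luminescence signal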
[10] = loss of viability in HepG2 cells – cell-based, CellTiter-Glo, cherry-picked, cytotoxicity control for Shn3 inhibitor project, dose response (AID 624134); format: functional
[11] = biological target: T3, Replicative DNA helicase DnaB (Mycobacterium tuberculosis, UniProt P9WMR3); assay: DnaB intein splicing inhibitors, dose response, biochemical, cell-free fluorescence (AID 449749); format: functional
T3 sequence (P9WMR3 whole entry): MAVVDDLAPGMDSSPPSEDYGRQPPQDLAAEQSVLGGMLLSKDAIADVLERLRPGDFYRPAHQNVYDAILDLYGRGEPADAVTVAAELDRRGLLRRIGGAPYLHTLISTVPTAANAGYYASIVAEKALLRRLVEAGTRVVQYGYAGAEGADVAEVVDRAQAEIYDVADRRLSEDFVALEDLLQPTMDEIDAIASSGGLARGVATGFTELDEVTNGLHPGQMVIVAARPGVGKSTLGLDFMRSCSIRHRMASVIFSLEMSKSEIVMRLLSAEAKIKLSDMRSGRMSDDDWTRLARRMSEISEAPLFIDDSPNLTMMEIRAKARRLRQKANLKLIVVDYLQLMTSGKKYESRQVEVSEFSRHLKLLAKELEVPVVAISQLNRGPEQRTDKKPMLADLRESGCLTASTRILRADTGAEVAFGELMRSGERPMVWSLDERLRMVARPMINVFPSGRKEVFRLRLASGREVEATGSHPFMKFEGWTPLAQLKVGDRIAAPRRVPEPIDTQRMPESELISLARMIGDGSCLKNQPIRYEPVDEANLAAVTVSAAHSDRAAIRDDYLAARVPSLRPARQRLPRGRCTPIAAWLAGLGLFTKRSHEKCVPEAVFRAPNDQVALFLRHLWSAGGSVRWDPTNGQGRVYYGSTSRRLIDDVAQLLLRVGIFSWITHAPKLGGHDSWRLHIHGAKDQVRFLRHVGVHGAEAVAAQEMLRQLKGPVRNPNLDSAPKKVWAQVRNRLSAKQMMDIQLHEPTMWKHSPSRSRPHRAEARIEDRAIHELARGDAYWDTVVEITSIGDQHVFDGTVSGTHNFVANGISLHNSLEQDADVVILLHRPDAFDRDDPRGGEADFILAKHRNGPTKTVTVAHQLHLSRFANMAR

BJ [12] = assay: BJ-TERT fibroblast viability loss – cell-based, RAS-independent, luminescence, dose response (AID 1933); format: functional; conditions: Homo sapiens
BJ [13] = assay: cells; format: functional, cell-based; conditions: Homo sapiens
BJ [14] = assay: BJ-TERT-LT-ST fibroblast viability loss – cell-based, RAS-independent, luminescence, dose response (AID 1935); format: functional; conditions: Homo sapiens;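 note: BJ fibroblasts immortalized with TERT plus LT and ST oncogenes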
[15] = DRD fibroblast viability loss – cell-based, non-viral oncogenic, luminescence, dose response (AID 1934); format: functional; conditions: Homo sapiens
BJ [16] = assay: growth inhibition of engineered Ras-driven BJ cells – cell-based, alamar blue fluorescence, cherrypicked samples, dose response (AID 2631); format: functional; conditions: Homo sapiens;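 note: confirmatory dose-response assay in RAS-dependent BJ fibroblasts engineered with TERT, LT and ST, with cytotoxicity read by fluorescence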
Phosphomannomutase 2 = Phosphomannomutase 2 (Homo sapiens, UniProt O15305); assay: Counter screen SAR assay for PMM2 inhibitors via a fluorescence intensity assay. [Related pubchem assays (depositor defined):AID1545, AID1574]
[17] = biological target: T4, Mannose-6-phosphate isomerase (Homo sapiens, UniProt P34949); assay: phosphomannose isomerase inhibition – biochemical, fluorescence intensity, confirmation (AID 1535)
T4 sequence (P34949 whole entry): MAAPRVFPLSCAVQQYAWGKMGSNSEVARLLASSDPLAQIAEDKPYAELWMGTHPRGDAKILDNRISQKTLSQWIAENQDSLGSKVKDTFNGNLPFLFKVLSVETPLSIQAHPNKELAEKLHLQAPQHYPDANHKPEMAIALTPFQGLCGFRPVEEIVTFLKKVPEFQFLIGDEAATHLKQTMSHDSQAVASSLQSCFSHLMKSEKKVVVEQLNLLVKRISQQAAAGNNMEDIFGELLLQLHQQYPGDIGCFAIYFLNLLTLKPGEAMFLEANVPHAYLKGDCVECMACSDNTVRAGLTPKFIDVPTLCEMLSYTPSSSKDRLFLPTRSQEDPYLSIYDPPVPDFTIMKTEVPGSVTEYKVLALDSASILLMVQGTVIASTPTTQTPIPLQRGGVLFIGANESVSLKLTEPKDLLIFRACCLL

[18] = biological target: T5, Endoribonuclease toxin MazF (Escherichia coli K-12, UniProt P0AE70); assay: substrate-only fluorescence increase artefacts – biochemical, single-stranded RNase substrate, counter-screen for MazEF activator project, dose response (AID 588502); format: functional
T5 sequence (P0AE70 whole entry): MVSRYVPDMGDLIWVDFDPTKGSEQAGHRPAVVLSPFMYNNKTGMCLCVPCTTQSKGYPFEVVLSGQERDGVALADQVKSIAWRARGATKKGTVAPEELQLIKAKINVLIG

[19] = biological target: T5, Endoribonuclease toxin MazF; assay: activation of MazEF endoribonuclease cleavage – biochemical, fluorescence, single-stranded RNA substrate, uHTS hits, dose response (AID 588481); format: functional

UDP-galactopyranose mutase, sequence (P9WIQ1 whole entry): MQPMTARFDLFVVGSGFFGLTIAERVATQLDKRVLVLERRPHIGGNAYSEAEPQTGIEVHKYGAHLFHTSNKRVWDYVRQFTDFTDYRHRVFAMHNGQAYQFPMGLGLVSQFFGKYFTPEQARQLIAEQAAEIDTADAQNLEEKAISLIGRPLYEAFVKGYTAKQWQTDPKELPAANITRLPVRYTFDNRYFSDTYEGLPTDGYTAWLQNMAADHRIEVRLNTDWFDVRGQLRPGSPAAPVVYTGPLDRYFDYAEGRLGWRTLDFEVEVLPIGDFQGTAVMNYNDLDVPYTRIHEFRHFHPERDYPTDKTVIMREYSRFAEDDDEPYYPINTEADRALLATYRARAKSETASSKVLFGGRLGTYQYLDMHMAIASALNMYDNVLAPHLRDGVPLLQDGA
Keap1/Nrf2, sequence (Q16236 whole entry): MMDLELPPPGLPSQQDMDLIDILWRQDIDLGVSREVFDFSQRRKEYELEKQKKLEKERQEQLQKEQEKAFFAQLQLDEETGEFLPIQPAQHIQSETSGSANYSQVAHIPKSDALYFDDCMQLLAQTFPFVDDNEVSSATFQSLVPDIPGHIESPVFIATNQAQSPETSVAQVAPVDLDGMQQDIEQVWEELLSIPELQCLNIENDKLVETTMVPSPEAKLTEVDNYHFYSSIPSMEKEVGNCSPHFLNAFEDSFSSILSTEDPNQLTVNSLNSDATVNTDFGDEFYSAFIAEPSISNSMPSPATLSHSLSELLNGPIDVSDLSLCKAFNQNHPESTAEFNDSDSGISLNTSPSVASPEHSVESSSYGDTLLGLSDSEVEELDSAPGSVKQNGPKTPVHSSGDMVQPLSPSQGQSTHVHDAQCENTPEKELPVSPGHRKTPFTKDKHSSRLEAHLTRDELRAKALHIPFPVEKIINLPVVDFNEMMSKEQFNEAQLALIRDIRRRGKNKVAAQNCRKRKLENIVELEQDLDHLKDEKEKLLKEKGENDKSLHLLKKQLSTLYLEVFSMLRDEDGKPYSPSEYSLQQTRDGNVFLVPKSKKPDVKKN
Keap1/Nrf2, sequence (Q14145 whole entry): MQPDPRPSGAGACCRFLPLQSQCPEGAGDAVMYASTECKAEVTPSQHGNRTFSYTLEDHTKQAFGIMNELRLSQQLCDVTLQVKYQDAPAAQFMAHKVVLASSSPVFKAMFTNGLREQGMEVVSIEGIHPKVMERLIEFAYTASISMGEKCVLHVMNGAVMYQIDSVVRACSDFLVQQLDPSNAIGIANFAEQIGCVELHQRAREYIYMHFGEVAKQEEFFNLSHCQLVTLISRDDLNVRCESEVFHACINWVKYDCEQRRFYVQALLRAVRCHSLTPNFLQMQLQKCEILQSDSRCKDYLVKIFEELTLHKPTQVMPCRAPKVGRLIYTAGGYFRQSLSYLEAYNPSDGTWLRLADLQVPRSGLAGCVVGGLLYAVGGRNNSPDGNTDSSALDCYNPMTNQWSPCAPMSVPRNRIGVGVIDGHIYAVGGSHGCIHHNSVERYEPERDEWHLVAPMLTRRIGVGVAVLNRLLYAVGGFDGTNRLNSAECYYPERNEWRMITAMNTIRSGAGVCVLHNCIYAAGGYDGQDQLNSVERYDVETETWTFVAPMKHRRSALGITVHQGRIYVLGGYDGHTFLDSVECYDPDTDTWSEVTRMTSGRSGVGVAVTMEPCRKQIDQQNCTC
Phosphomannomutase 2, sequence (O15305 whole entry): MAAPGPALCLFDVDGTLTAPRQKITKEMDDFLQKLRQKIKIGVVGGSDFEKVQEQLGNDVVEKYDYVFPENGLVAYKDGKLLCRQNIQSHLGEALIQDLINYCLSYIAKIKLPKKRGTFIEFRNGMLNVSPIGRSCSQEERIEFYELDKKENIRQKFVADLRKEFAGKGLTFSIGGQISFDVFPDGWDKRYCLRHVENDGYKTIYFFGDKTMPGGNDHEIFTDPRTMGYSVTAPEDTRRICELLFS
Beta-galactosidase, sequence (Q8VNN2 whole entry): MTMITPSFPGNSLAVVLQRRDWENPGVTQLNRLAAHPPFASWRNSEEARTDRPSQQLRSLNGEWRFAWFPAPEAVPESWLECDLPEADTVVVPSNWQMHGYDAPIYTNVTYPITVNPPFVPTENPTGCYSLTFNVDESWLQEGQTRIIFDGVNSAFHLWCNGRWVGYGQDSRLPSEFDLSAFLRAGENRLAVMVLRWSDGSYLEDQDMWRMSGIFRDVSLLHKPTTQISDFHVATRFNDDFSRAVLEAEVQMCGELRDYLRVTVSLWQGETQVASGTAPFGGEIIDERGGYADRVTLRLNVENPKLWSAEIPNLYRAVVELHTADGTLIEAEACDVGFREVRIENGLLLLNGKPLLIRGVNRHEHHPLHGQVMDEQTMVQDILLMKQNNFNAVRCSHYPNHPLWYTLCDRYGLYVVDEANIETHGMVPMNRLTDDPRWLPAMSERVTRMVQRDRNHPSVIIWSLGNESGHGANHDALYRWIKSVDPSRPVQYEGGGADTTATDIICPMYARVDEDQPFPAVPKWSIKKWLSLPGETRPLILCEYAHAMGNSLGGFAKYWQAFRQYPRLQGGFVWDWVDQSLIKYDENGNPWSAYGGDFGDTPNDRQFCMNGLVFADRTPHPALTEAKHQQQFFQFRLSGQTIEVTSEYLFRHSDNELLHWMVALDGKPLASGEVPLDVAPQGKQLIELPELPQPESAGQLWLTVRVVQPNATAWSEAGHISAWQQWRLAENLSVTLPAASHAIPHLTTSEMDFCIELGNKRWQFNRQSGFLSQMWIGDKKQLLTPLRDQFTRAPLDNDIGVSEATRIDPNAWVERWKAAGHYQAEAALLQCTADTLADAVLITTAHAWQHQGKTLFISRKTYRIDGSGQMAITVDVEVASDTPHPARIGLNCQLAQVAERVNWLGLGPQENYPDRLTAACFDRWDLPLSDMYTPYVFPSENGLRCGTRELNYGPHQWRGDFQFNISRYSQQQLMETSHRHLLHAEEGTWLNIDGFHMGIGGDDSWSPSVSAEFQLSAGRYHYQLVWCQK
ORF 73, sequence (O40947 whole entry): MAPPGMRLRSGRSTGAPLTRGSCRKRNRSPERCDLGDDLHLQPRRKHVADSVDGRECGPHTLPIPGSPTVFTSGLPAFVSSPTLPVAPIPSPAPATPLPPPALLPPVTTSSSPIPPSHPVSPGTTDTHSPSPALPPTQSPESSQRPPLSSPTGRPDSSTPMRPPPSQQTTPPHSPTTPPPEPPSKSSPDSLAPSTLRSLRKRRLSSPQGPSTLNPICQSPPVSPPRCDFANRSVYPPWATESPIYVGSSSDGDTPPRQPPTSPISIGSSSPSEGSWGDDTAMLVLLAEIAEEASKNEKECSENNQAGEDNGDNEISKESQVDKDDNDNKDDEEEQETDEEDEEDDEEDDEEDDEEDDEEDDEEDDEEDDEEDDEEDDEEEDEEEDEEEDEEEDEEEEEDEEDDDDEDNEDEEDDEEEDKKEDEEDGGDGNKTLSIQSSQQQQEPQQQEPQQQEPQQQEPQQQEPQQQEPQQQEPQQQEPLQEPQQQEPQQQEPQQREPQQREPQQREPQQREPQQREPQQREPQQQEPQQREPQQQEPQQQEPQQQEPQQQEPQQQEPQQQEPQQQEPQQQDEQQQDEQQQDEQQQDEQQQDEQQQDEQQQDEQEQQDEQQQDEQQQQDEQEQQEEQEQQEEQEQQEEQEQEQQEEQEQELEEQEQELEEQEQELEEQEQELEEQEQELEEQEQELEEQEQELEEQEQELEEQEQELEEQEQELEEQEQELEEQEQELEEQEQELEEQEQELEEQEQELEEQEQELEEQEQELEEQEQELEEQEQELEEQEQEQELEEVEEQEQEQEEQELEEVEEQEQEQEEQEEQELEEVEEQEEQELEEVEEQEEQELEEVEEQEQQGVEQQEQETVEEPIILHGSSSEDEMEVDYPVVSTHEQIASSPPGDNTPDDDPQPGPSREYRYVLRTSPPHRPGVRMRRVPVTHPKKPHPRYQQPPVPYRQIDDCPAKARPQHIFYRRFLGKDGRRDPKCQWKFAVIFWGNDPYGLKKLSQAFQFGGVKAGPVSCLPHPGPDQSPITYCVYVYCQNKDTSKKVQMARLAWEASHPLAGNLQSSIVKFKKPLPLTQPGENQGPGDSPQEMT
Beta Lactamase, sequence (Q932Y6 whole entry): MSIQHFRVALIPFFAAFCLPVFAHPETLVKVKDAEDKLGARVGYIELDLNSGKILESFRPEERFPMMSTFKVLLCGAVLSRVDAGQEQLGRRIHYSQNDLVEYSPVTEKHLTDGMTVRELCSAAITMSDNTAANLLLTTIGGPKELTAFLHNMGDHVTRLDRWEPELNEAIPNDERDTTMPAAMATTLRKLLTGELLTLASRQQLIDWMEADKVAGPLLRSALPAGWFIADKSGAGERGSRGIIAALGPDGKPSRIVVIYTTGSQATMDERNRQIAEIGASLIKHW

With `COc1ccc(N=Nc2nc3cc(Br)c(Br)cc3n2C)c(OC)c1` the AC50 [1] was 247 µM (active) and the AC50 (Keap1/Nrf2) was > 52 µM (inactive).

In the case of `Cc1cc(C)n(-c2nnc(NC(C)(C)C)nn2)n1`, the AC50 (HeLa) was 62.6 µM (active).

With `CN(C)CCCNc1ncnc2c1c(-c1ccccc1)cn2-c1ccccc1` the CC50 (Vero [2]) was > 25 µM (active) and the IC50 (Vero [3]) was 23.9 µM (active).

In the case of `CCN(CC)c1ccc2cc(S(=O)(=O)c3ccc(Cl)cc3)c(=O)oc2c1`, the AC50 [1] was 10.8 µM (active), the AC50 (cells) was 35.7 µM (active) and the AC50 (Keap1/Nrf2) was 11.8 µM (active). The AC50 (ORF 73) was 19.1 µM (active) and the AC50 [4] was 0.246 µM (active).

With `CS(=O)(=O)c1ncc(Cl)c(C(=O)Nc2ccc(OC(F)F)cc2)n1` the AC50 (INS1) was 8.07 µM (active), the EC50 (Protein RecA) was 3.72 µM (active) and the IC50 (Beta Lactamase) was 6.65 µM (active). For the same molecule, the AC50 [5] was 0.682 µM (active), the IC50 (CHO) was 2.17 µM (active) and the IC50 [6] was 7.79 µM (active). For the same molecule, the EC50 [7] was 4.44 µM (active), the EC50 (Beta-galactosidase) was > 40 µM (inactive) and the AC50 [8] was 7.27 µM (active). For the same molecule, the AC50 (HEK293) was 7.88 µM (active), the EC50 [9] was 1.52 µM (active) and the AC50 [10] was 22.1 µM (active). The AC50 [11] was 3.68 µM (active).

With `CCN1CCN(CCNC(=O)c2ccc(/C=C3/Sc4ccccc4N(Cc4ccccc4C)C3=O)cc2)CC1` the EC50 (BJ [12]) was 6.6 µM (active), the EC50 (BJ [13]) was 13.7 µM (active) and the EC50 (BJ [14]) was > 150 µM (inconclusive). The EC50 [15] was 9.43 µM (active) and the EC50 (BJ [16]) was > 133 µM (inconclusive).

With `Clc1ccc(Nc2ccccc2/N=c2\ssnc2Cl)cc1` the IC50 (Phosphomannomutase 2) was > 100 µM (inactive) and the IC50 [17] was 9.77 µM (active).

For `Fc1ccc(/N=c2\ssnc2Cl)cc1`, the IC50 (Phosphomannomutase 2) was > 100 µM (inactive) and the IC50 [17] was 11.6 µM (active).

In the case of `O=C(N/N=C/c1cccnc1)c1ccc(NC(=O)C(c2ccccc2)c2ccccc2)cc1`, the EC50 [18] was > 99 µM (inactive), the AC50 (INS1) was 0.578 µM (active) and the EC50 [19] was 40.8 µM (inactive). For the same molecule, the EC50 (BJ [12]) was > 150 µM (not active), the EC50 (BJ [13]) was 0.949 µM (inconclusive) and the EC50 (BJ [14]) was > 150 µM (not active). The EC50 [15] was > 150 µM (not active) and the EC50 (BJ [16]) was > 66.7 µM (inactive).

For `CCN(CC)C(=O)C1CCCc2c1[nH]c1ccc(Cl)cc21` (stereo not drawn), the CC50 (Vero [2]) was > 25 µM (active) and the IC50 (Vero [3]) was 3.28 µM (active).

In the case of `CC1CCN(c2ccc3c(c2)S(=O)(=O)c2ccccc2C3=O)CC1`, the AC50 (HeLa) was 39.7 µM (active).
